Values of other authors in patent publication US10300068B2, “Method of treating insomnia” (priority 2015, dated 2019).

Assays:
[1] = obese vs non-obese patients, women vs men
[2] = 20 mg, healthy adults
[3] = 40 mg non-elderly, 30 mg elderly; mild to moderate COPD, n=25
[4] = co-administered with alcohol
[5] = patients, assessed by questionnaire
[6] = biological target: intestinal P-gp (Homo sapiens, UniProt P08183); settings: concomitant administration with digoxin
[7] = Day 4, once-daily 40 mg, mild to moderate obstructive sleep apnea, n=26; 90% CI 0.22 to 5.09
[8] = tested on: epicardial coronary arteries; settings: patients with coronary artery disease

Chain of intestinal P-gp (P08183 whole entry): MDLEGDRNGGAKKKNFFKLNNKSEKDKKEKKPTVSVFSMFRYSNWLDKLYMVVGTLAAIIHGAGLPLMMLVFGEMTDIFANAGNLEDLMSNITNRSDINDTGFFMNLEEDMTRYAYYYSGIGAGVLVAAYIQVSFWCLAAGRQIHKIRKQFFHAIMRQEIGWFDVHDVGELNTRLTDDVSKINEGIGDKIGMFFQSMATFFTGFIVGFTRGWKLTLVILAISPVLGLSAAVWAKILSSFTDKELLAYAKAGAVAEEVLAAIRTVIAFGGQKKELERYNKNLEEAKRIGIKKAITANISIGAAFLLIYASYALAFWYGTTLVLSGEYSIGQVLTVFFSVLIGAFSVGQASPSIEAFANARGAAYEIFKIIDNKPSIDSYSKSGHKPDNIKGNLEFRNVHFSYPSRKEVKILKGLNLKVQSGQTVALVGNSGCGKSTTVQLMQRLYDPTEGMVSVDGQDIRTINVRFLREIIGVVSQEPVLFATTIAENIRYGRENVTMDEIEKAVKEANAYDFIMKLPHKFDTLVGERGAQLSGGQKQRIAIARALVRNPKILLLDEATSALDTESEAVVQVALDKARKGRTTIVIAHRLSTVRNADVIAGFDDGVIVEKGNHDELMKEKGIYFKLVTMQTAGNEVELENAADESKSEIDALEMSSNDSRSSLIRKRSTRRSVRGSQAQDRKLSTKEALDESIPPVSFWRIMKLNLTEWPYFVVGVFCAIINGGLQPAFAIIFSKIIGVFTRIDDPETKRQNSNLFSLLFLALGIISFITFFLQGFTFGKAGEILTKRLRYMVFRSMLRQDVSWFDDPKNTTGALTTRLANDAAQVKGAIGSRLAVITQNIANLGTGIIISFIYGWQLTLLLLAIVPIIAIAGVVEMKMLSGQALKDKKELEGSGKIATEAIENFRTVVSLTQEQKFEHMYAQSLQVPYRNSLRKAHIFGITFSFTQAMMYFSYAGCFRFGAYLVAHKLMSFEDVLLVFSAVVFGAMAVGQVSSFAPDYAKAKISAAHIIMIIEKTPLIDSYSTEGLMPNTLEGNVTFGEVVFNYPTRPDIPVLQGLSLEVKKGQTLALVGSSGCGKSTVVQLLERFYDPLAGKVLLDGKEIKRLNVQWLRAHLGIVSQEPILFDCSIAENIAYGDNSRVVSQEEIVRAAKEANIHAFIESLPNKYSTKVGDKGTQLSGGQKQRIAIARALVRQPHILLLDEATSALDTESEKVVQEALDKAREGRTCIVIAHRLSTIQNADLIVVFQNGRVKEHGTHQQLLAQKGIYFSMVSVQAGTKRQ

Row | SMILES | exposure [1] | driving ability [2] | respiratory depressant effects as measured by oxygen saturation [3] | pharmacokinetics of BELSOMRA [4] | psychomotor impairment [4] | suicidal ideation [5] | physical dependence with prolonged use (completed clinical trials) | withdrawal symptoms after discontinuation (human, in vivo) | digoxin levels [6] | mean Apnea/Hypopnea Index treatment difference (suvorexant-placebo) [7] | relaxation of epicardial coronary arteries [8]
1 | Cc1ccc(-n2nccn2)c(C(=O)N2CCN(c3nc4cc(Cl)ccc4o3)CC[C@H]2C)c1 [BELSOMRA, suvorexant] | increased | impaired in some individuals | no respiratory depressant effects | no alteration | additive psychomotor impairment | dose-dependent increase | no evidence for physical dependence | no reported withdrawal symptoms | slightly increased | 2.7 | 
2 | CCCc1nn(C)c2c(=O)[nH]c(-c3cc(S(=O)(=O)N4CCN(C)CC4)ccc3OCC)nc12 [sildenafil] |  |  |  |  |  |  |  |  |  |  | relax epicardial coronary arteries
